{"source": "patent US20240085429A1", "about": "“ALTERING PROTEIN FUNCTION BY PHARMACOLOGICAL TARGETING OF MEMBRANE DOMAINS” (University of Virginia Patent Foundation, priority 2021, published 2024)", "key": {"[1]": {"test_system": "human peripheral myelin protein 22 (PMP22)", "assay": "HTS of FDA-approved drug library for compounds that alter phase partitioning of PMP22 in GPMVs", "conditions": "for shift of PMP22 phase preference in favor of the ordered (raft) phase / hit class in PMP22 screen: 10 micromolar; for shift of PMP22 phase preference in favor of the ordered (raft) phase: control value 78%, reproducible at 1 micromolar; for hit class in PMP22 screen: 1184 compound library of FDA-approved drugs; for effect on relative ordered (raft) vs. disordered phase proportions: in the absence or presence of PMP22", "from_the_text": "By way of example and not limitation, in some embodiments PMP22 containing a MYC epitope sequence was employed in the GPMVs (hereafter referred to as “PMP22”, such as by expressing a MYC-Tagged PMP22 in Hela cells, followed by formation of PMP22 containing GPMVs, followed by addition of a commercial fluorescently labeled anti-MYC antibody to confer fluorescence to PMP22 in GPMVs, thereby making PMP22 detectable to enable its quantitation in the raft phase domains versus in the non-raft phase domains. See Marinko et al. (2020) Proc Natl Acad Sci USA 117(25):14168-14177.\nThe assay was scaled up to carry out high throughput screens (HTS). The strategy for these screens is similar to those outlined for our approach to finding compounds that shift the raft vs. non-raft phase domain distribution in GPMVs, except that in this case we were interested in discovering compounds that either shift PMP22 out of rafts or enhance its partitioning into the ordered raft phase domain. This pilot HTS screen involved the 1184 compound library of FDA-approved drugs at a concentration of 10 micromolar each and was carried out in the Vanderbilt HTS Core. We predicted that select compounds might sometimes change not only the phase partitioning of PMP22, but also change the actual amounts of ordered (raft) versus disordered phase domains that are present. We also wondered whether PMP22 and certain compounds might act synergistically (through any one of several possible mechanisms) to alter membrane phase behavior. This could potentially cause the compounds to have different effects on the ratio of raft versus disordered domains in the absence relative to the presence of the PMP22 protein. To test these possibilities, we compared the results of our screen to the results of preliminary screens carried out on the same compounds in GPMVs lacking expressed PMP22. This allowed us to directly evaluate the effects of the compounds under both conditions. The plots shown in FIGS. 28A and 28B, as well as additional data not shown reveal several classes of PMP22-impacting hits from this 1184 compound library: […]"}, "GPMVs from HeLa cells": {"test_system": "GPMVs from HeLa cells", "assay": "Di4 fluorescence lifetime imaging (lipid packing in GPMVs)", "design": "species or system human", "conditions": "TLCK 1 μM, C6-ceramide 1 μM, MβCD 5 mM", "from_the_text": "It was also of interest how TLCK and C6-ceramide impact other properties of the membrane compared to treatments such as cholesterol depletion that are commonly used to disrupt rafts in cells (Zidovetzki & Levitan, 2007). To test this, we examined their effects on membrane lipid packing and fluidity using a fluorescent reporter of membrane packing, Di-4-[…] (Di4) (Jin et al., 2006; Owen et al., 2006; Sezgin et al., 2014; Levental et al., 2020b; Lorent et al., 2020). As a control, we subjected GPMVs to cholesterol depletion using 5 mM MβCD. The photophysical characteristics of Di4, including its lifetime, are dependent on lipid packing in membranes. In particular, a lower Di4 lifetime is indicative of loose packing and a more fluid membrane environment whereas higher Di4 lifetimes point to a less fluid membranes and tighter lipid packing. […] The phase separated vesicles were characterized by two populations of lifetimes, corresponding to the Lo phase (higher lifetime) and Ld phase (lower lifetime) (FIGS. 11A-11F).\nGPMVs were prepared as previously described by Sezgin, E, et al., Nat Protoc 2012, 7 (6), 1042-51. In brief, HeLa cells were washed twice with GPMV buffer (2 mM CaCl2)/10 mM HEPES/0.15 M NaCl, pH 7.4), then washed twice with GPMV active buffer (GPMV buffer containing 25 mM formaldehyde and 2 mM DTT). Cells were then incubated with GPMV active buffer for 1-2 hours at 37° C. with shaking at 90-95 RPM. The GPMV-containing supernatant was decanted into a centrifuge tube and GPMVs were allowed to settle for 1 h. Aliquots of GPMVs (100 μL) were pipetted from the bottom of the Eppendorf tube into separate tubes and treated with DMSO (0.1%), 1 μM TLCK, 1 μM C6-ceramide or 5 mM MbCD. After 5 min, Di 4 […] (Di4) (Thermo Scientific) was added to a final concentration of […] from a stock solution of 1 mg/mL Di4 in ethanol. The GPMVs were then sandwiched between two coverslips coated with 1 mg/mL bovine serum albumin (BSA) solution and allowed to incubate for an additional 20 min prior to lifetime measurements.\nDi4 lifetime images were performed on a Leica TCS SP8 system comprising a Leica DMi8 inverted scanning confocal microscope with time-correlated single photon counting (TC-SPC) system and an 80 MHz-pulsed supercontinuum white light laser which allows continuously tunable excitation in the visible range coupled with filter-free detection. Samples were imaged using an HC PL APO CS2 63X/1.20 water objective. Di4 was excited at 488 nm and the emission was collected in the 550-800 nm range. The photon count rate was kept under 0.5 photons per laser pulse by adjusting the laser power, and sufficient frames were cumulatively acquired to obtain at least 100 photons per pixel. The fluorescence decay curves were fit with a bi-exponential re-convolution function adjusted to the instrument response function, and the average intensity-weighted lifetime was calculated for individual vesicles or area of interest and represented in the FLIM images as Di4 lifetime. Data are reported from two independent experiments. Statistical analyses were performed using GraphPad Prism 9.3.0."}}, "note": "Where a name gives a salt, the structure may show the parent alone.", "data": [{"compound": "Clc1ccc2c(c1)CCc1cccnc1C2=C1CCNCC1", "note": "[Desloratadine]", "values": [{"measurement": "shift of PMP22 phase preference in favor of the ordered (raft) phase", "setting": "[1]", "result": "~10", "unit": "%"}, {"measurement": "hit class in PMP22 screen", "setting": "[1]", "result": "Class I"}, {"measurement": "effect on relative ordered (raft) vs. disordered phase proportions", "setting": "[1]", "result": "without significantly perturbing"}]}, {"compound": "CN(C)c1ccc(C(=C2C=CC(=[N+](C)C)C=C2)c2ccc(N(C)C)cc2)cc1", "note": "[Crystal violet]", "values": [{"measurement": "hit class in PMP22 screen", "setting": "[1]", "result": "false positive"}]}, {"compound": "CSc1ccc2c(c1)N(CCC1CCCCN1C)c1ccccc1S2", "note": "(stereo not drawn) [Thioridazine-HCl]", "values": [{"measurement": "shift of PMP22 phase preference in favor of the ordered (raft) phase", "setting": "[1]", "result": "~10", "unit": "%"}, {"measurement": "hit class in PMP22 screen", "setting": "[1]", "result": "Class I"}, {"measurement": "effect on relative ordered (raft) vs. disordered phase proportions", "setting": "[1]", "result": "without significantly perturbing"}]}, {"compound": "MβCD", "values": [{"measurement": "phase state of GPMVs in FLIM images", "setting": "GPMVs from HeLa cells; room temperature", "result": "multiple domains with the same lifetime"}, {"measurement": "average Di4 lifetime", "setting": "GPMVs from HeLa cells; single-phase GPMVs (MβCD: average across all domains), control 2.53±0.06 ns, mean±SD", "result": "1.99±0.09", "unit": "ns"}]}]}
